Bridge positions count the residues as written; N and C are the ends. Square brackets hold non-standard residues; d marks the D form. Peptide text beside a SMILES is read from it. * marks the point of attachment. Lauroyl = CCCCCCCCCCCC(=O)*; X1 = O=C(CN1CCN(CCO)CC1)*
Key:
MCP-1 = assay: In vitro chemotaxis (trans-well migration) v MCP-1; format: cell-based, human
In short: (§1)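 Trans-well migration toward IL-8 or MCP-1 placed below, with agent added to THP-1 cells (10^4-10^6) in the top well and incubation at 37° C (e.g. 4 hours). MTT absorbance at 595 nm, interpolated on a cell standard curve, gives migrated cell numbers; TGFβ-type negative control and cytotoxicity check included.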

IL-8 = assay: In vitro chemotaxis, inhibition v IL-8; format: cell-based, human; design: concentration or dose not given beside the values
In short: as §1

[1] = Half-life in rat plasma in vitro; format: in vitro ADME; details: for half-life: read-out: T ½ rat plasma in vitro (converted)
Half-life in rat in vivo = details: read-out: T ½ rat in vivo

Molecule	EC50 (MCP-1)	v IL-8 inhibition (%) (IL-8)	half-life [1]	half-life (Half-life in rat in vivo)	T ½ rat plasma in vitro [1]
CC[C@H](C)[C@@H]1NC(=O)[C@H](Cc2c[nH]c3ccccc23)NC(=O)[C@H](CCCCN)NC(=O)[C@@H](N)CSSC[C@@H](C(N)=O)NC(=O)[C@H](CCC(N)=O)NC1=O [Example 1, c(Cys-Lys-Trp-Ile-Gln-Cys)-NH2] (H-CKWIQC-NH2; disulfide 1-6)	12 nM	86.7%	> 28 h	0.317 h	
CC[C@H](C)[C@@H]1NC(=O)[C@H](Cc2c[nH]c3ccccc23)NC(=O)[C@H](CCCCN)NC(=O)[C@H](CCC(N)=O)NC(=O)[C@H](CCCCN)NC(=O)[C@@H]2CCCN2C(=O)[C@H](CC(=O)O)NC(=O)[C@H](CC(C)C)NC(=O)[C@@H](N)CSSC[C@@H](C(N)=O)NC(=O)[C@H](CCC(N)=O)NC1=O [Example 33, c(Cys-Leu-Asp-Pro-Lys-Gln-Lys-Trp-Ile-Gln-Cys)-NH2] (H-CLDPKQKWIQC-NH2; disulfide 1-11)	20 nM	90.0%	> 15 h	0.1 h	
CC[C@@H](C)[C@H]1NC(=O)[C@@H](CCC(N)=O)NC(=O)[C@H](NC(=O)CN2CCN(CCO)CC2)CSSC[C@H](C(N)=O)NC(=O)[C@@H](CC(C)C)NC(=O)[C@@H](CC(=O)O)NC(=O)[C@H]2CCCN2C(=O)[C@@H](CCCCN)NC(=O)[C@@H](CCC(N)=O)NC(=O)[C@@H](CCCCN)NC(=O)[C@@H](Cc2c[nH]c3ccccc23)NC1=O [Example 152, HEPA-c(D-Cys-D-Gln-D-Ile-D-Trp-D-Lys-D-Gln-D-Lys-D-Pro-D-Asp-D-Leu-D-Cys)-NH2] (X1-[dC][dQ][dI][dW][dK][dQ][dK][dP][dD][dL][dC]-NH2; disulfide 1-11)	20 nM	103.5%		0.633 h	
CCCCCCCCCCCC(=O)NCCCC[C@H](NC(C)=O)C(=O)N[C@H]1CSSC[C@@H](C(N)=O)NC(=O)[C@H](CCC(N)=O)NC(=O)[C@H]([C@@H](C)CC)NC(=O)[C@H](Cc2c[nH]c3ccccc23)NC(=O)[C@H](CCCCN)NC(=O)[C@H](CCC(N)=O)NC(=O)[C@H](CCCCN)NC(=O)[C@@H]2CCCN2C(=O)[C@H](CC(=O)O)NC(=O)[C@H](CC(C)C)NC1=O [Example 162, Ac-Lys(N/-dodecanoyl)-c(Cys-Leu-Asp-Pro-Lys-Gln-Lys-Trp-Ile-Gln-Cys)-NH2] (Ac-K(Lauroyl)CLDPKQKWIQC-NH2; disulfide 2-12)	20 nM	101.1%		0.283 h	
CC(C)(C)OC(=O)N[C@@H](Cc1c[nH]c2ccccc12)C(=O)NCC(=O)NC1CCC(=O)NC1=O (stereo partly drawn) [Example 163, BOC-Trp-Gly-α-aminoglutaramide]	20 nM	105.7%	6.1 h		
CC(C)[C@H](NC(=O)[C@H](Cc1c[nH]c2ccccc12)NC(=O)OC(C)(C)C)C(=O)NC1CCC(=O)NC1=O (stereo partly drawn) [Example 164, BOC-Trp-Val-α-aminoglutaramide]	20 nM	104.4%	11.1 h	0.55 h	
CC(C)(C)OC(=O)N[C@@H](Cc1c[nH]c2ccccc12)C(=O)NCCC(=O)NC1CCC(=O)NC1=O (stereo partly drawn) [Example 165, BOC-Trp-βA1a-α-aminoglutaramide]	5 nM	111.5%	4 h		
CCCCCCCCCCCC(=O)NCCCC[C@H](N)C(=O)N[C@@H](CC(=O)O)C(=O)N[C@H]1CSSC[C@@H](C(N)=O)NC(=O)[C@H](CCC(N)=O)NC(=O)[C@H]([C@@H](C)CC)NC(=O)[C@H](Cc2c[nH]c3ccccc23)NC(=O)[C@H](CCCCN)NC(=O)[C@H](CCC(N)=O)NC(=O)[C@H](CCCCN)NC(=O)[C@@H]2CCCN2C(=O)[C@H](CC(=O)O)NC(=O)[C@H](CC(C)C)NC1=O [Example 170, Lys(Nε-dodecanoyl)-Asp-c(Cys-Leu-Asp-Pro-Lys-Gln-Lys-Trp-Ile-Gln-Cys)-NH2] (H-K(Lauroyl)DCLDPKQKWIQC-NH2; disulfide 3-13)	> 1000 nM	−5.1%		0.0833 h	
CC(C)OC(=O)N[C@@H](Cc1c[nH]c2ccccc12)C(=O)NCCC(=O)NC1CCC(=O)NC1=O (stereo partly drawn) [Example 179, N-(isopropoxycarbonyl)-Trp-βAla-α-aminoglutarimide]			9.1 h		
N[C@@H](Cc1c[nH]c2ccccc12)C(=O)NCCC(=O)NC1CCC(=O)NC1=O (stereo partly drawn) [Example 182, Trp-βAla-α-aminoglutaramide]	6 nM		0.9 h		
CC[C@@H](C)[C@H]1NC(=O)[C@@H](CCC(N)=O)NC(=O)[C@H](N)CSSC[C@H](C(N)=O)NC(=O)[C@@H](CCCCN)NC(=O)[C@@H](Cc2c[nH]c3ccccc23)NC1=O [Example 183, c(D-Cys-D-Gln-D-Ile-D-Trp-D-Lys-D-Cys)-NH2] (H-[dC][dQ][dI][dW][dK][dC]-NH2; disulfide 1-6)	20 nM		> 24 h		
CC(C)[C@@H](CC(=O)NC1CCC(=O)NC1=O)NC(=O)[C@H](Cc1c[nH]c2ccccc12)NC(=O)OC(C)(C)C (stereo partly drawn) [Example 184, BOC-Trp-βhVal-α-aminoglutarimide]	10 nM		1.3 h		
CC(C)(NC(=O)[C@@H](N)Cc1c[nH]c2ccccc12)C(=O)NC1CCC(=O)NC1=O (stereo partly drawn) [Example 188, Trp-Aib-aminoglutarimide]	66 nM		3.1 h		
BOC-Tcc-βAla-α-aminoglutaramide [Example 171]	602 nM	84.6%			8.5 h

— patent publication US20110038885A1, “CHEMOKINE ANALOGS” (priority 2007, published 2011)
